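48-hour exposure; five concentrations; linearly interpolated endpoints. Abbreviation: GI50, concentration required for 50% inhibition of growth. The concentration for full growth arrest is given as TGI.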
Experiments:
Test in all cases: NCI anticancer screen, dose series, 48 h
[1] = test system: A498 renal
[2] = test system: A549 NSCLC
[3] = test system: HL-60(TB) leukemia
[4] = test system: LOX IMVI melanoma
[5] = test system: MOLT-4 leukemia
[6] = test system: NCI-H226 lung
[7] = test system: NCI-H23 lung
[8] = test system: NCI-H522 lung
[9] = test system: SK-MEL-2 melanoma
[10] = test system: U251 CNS

Row | SMILES | GI50 [1] | TGI [1] | GI50 [2] | TGI [2] | GI50 [3] | TGI [3] | GI50 [4] | TGI [4] | GI50 [5] | TGI [5] | GI50 [6] | TGI [6] | GI50 [7] | TGI [7] | GI50 [8] | TGI [8] | GI50 [9] | TGI [9] | GI50 [10] | TGI [10]
1 | C=CCN(/C=C1/C(=O)O[C@H](COC)[C@@]2(C)C1=C(O)C(=O)C1=C2[C@H](OC(C)=O)C[C@]2(C)C(=O)CC[C@@H]12)CC=C | 0.0205 µM | 0.103 µM | 0.382 µM | > 8.15 µM | 0.286 µM | > 10 µM | 1.65 µM | > 10 µM | 1.05 µM | > 10 µM | 2.57 µM | > 10 µM | > 5.65 µM | > 10 µM | 1.41 µM | > 10 µM | 1.22 µM | > 6.23 µM | 2.12 µM | > 10 µM
2 | C=C1SC(=Nc2c(C)cc(C)cc2C)N(C(=O)c2sc3ccccc3c2Cl)C12CCCCC2 | > 100 µM | > 100 µM | > 100 µM | > 100 µM | 16.5 µM | > 100 µM | > 100 µM | > 100 µM | 26.3 µM | > 100 µM | > 100 µM | > 100 µM | 37.4 µM | > 100 µM | 28.6 µM | > 100 µM | 61.6 µM | > 100 µM | > 100 µM | > 100 µM
3 | CC1(C)CC[C@H](Nc2ncc(C(F)(F)F)c(-c3c[nH]c4c(P(C)(C)=O)c(C#N)ccc34)n2)CN1 | 1.76 µM | 8.85 µM | 0.184 µM | 35.4 µM | < 0.01 µM | 2.37 µM | 0.0297 µM | 7.44 µM | 0.214 µM | > 23.2 µM | 0.165 µM | 6.78 µM | < 0.01 µM | 3.44 µM |  | 14.4 µM | 0.283 µM | 6.9 µM | 0.0771 µM | 23.7 µM
4 | CC1CCP(=O)(c2ccccc2)c2ccccc21 (centres undefined) |  | > 100 µM |  | > 100 µM |  | 41.1 µM |  | 58 µM |  | 75.4 µM |  | > 100 µM |  | > 100 µM |  | > 100 µM |  | > 100 µM |  | 53.3 µM
5 | O=C(/C=C/C12c3ccccc3C(c3ccccc31)C1C(=O)N(c3ccccc3)C(=O)C12)c1ccccc1 (centres undefined) | 0.763 µM | 2.2 µM | 2.58 µM | > 100 µM | 1.02 µM | 8.66 µM | 1.66 µM | 3.51 µM | 1.23 µM | > 100 µM | 2.34 µM | 8.63 µM | 2.69 µM | 18.1 µM | 1.59 µM | 4.45 µM | 2.13 µM | 7.85 µM | 2.48 µM | 9.44 µM
6 | O=C1c2ccc([N+](=O)[O-])cc2-c2c1c1ccccc1c(=O)n2CCCNCCCNCCCn1c2c(c3ccc([N+](=O)[O-])cc3c1=O)C(=O)c1ccccc1-2 | 2.05 µM | 8.88 µM | 2.69 µM | > 40.8 µM | 2.09 µM | 7.48 µM | 2.7 µM | 16 µM | 0.129 µM | 2.11 µM | 1.57 µM | 8.53 µM | 1.2 µM | 3.4 µM | 7.1 µM | 32.3 µM | 17.3 µM | 62.3 µM | 3.42 µM | 15.3 µM
7 | O=C(/C=C/c1ccccc1)CC1OC(=O)c2ccccc21 (centres undefined) |  | > 100 µM |  | > 100 µM |  | > 100 µM |  | > 100 µM |  | > 100 µM |  | 83.1 µM |  | > 100 µM |  | > 100 µM |  | > 100 µM |  | > 100 µM
8 | O=Nc1c(-c2c(O)[nH]c3ccc([N+](=O)[O-])cc23)[nH]c2ccc(O)cc12 | 0.218 µM | 1.24 µM | 0.674 µM | > 60.6 µM | 0.312 µM | 1.04 µM | 0.171 µM | 0.531 µM | 0.359 µM | 4.21 µM | 0.383 µM | > 100 µM | 0.549 µM | > 49.5 µM | 0.38 µM | 2.67 µM | 0.293 µM | 0.757 µM | 0.325 µM | > 35.1 µM
9 | COC(=O)C(C(=O)C(=O)Nc1ccc(C(F)(F)F)cc1[N+](=O)[O-])c1csc(-n2nc(-c3ccccc3)cc2-c2ccccc2)n1 (centres undefined) |  | > 100 µM |  | > 100 µM |  | > 100 µM |  | > 100 µM |  | > 100 µM |  | > 100 µM |  | > 100 µM |  | > 100 µM |  | > 100 µM |  | > 100 µM
10 | CC(=O)NNc1nc(C)c(C(=O)NNC(=O)C(=O)Nc2c(C)cccc2C)s1 |  | > 100 µM |  | > 100 µM |  | 77.6 µM |  | > 100 µM |  | 80.1 µM |  | > 100 µM |  | 60.1 µM |  | 32.8 µM |  | > 100 µM |  | > 100 µM

Source: PubChem BioAssay (NCI)
